Residues, ends and D or L forms follow the SMILES beside them. *: point of attachment. Cbz = O=C(OCc1ccccc1)*

This note sets out measurements from article PMC13083723 (Patterns, 2026).

The test system of this experiment is Vero-E6 cells. In words: cells. The class given is cell-based. Conditions: for activation at 10 µM: Chlorocebus sabaeus, Vero C1008, 24 h, read-out: PL_Result.

As for `CC[C@@]1(O)C(=O)OCc2c1cc1n(c2=O)Cc2cc3c(CN(C)C)c(O)ccc3nc2-1` [SPE_K55696337], the activation at 10 µM was -1.88%.

Turning to `CCn1cnc2c(Nc3cccc(Cl)c3)nc(N[C@@H]3CCCC[C@@H]3N)nc21` [SPE_K56239177], the activation at 10 µM stood at 0.0914%.

Regarding `CC[N+](CC)(CC)CC(=O)Nc1c(C)cccc1C` [SPE_K56596464], the activation at 10 µM is -0.251%.

Regarding `O=C(O)CCCNC(=O)c1cccnc1` [SPE_K56691760], the activation at 10 µM worked out at 0.477%.

As for `O=C(Nc1ccc(N2CCC(C(=O)N3CCOCC3)CC2)cc1)c1cnc(Oc2ccccc2)nc1` [SPE_K57708067], the activation at 10 µM is -4.61%.

For the molecule `CC(C)C[C@H](NC(=O)[C@H](Cc1ccccc1)NC(=O)CNC(=O)[C@H](C)NC(=O)[C@@H](N)Cc1ccc(O)cc1)C(=O)O` [SPE_K57927309], the PL_Result is reported as -0.1658.

`CC1=CC[C@@H](C(C)(C)O)C[C@@H]1O` [SPE_K58262380]: the activation at 10 µM was -11.5%.

On to `CC(C)c1cc(C(=O)N2Cc3ccc(CN4CCN(C)CC4)cc3C2)c(O)cc1O` [SPE_K58435339], for which the activation at 10 µM turned out to be 0.714%.

As to `COc1cc2c(cc1OC)-c1cc3ccc(OC)c(OC)c3c[n+]1CC2` [SPE_K58466253], the activation at 10 µM came to 0.986%.

Consider `O=C(/C=C/c1cccnc1)NCCCCC1CCN(C(=O)c2ccccc2)CC1` [SPE_K58550667], for which the activation at 10 µM was found to be 2.51%.

Regarding `Oc1cc(O)c2c(c1)O[C@H](c1ccc(O)c(O)c1)[C@@H](O)C2` [SPE_K58736316], the activation at 10 µM is -12.2%.

As to `COc1ccc2cc([C@H](C)C(=O)O)ccc2c1` [SPE_K59197931], the activation at 10 µM was -3.31%.

As for `CC(C)Oc1ccc2c(=O)c3cc(C(=O)O)ccc3oc2c1` [SPE_K59339270], the activation at 10 µM was -2.83%.

Turning to `CC(C)[C@@H](N)C(=O)O` [SPE_K59424860], the activation at 10 µM was 0.189%.

Take `O=C(/C=C/C=C/c1ccc2c(c1)OCO2)N1CCCCC1` [SPE_K59522102]: the activation at 10 µM is 2.7%.

With `CC(C)Nc1nc2cc(Cl)c(Cl)cc2n1[C@H]1O[C@@H](CO)[C@H](O)[C@@H]1O` [SPE_K59524082], the activation at 10 µM is -6.13%.

For the molecule `CC[C@]1(O)C[C@H]2C[N@](CCc3c([nH]c4ccccc34)[C@@](C(=O)OC)(c3cc4c(cc3OC)N(C)[C@H]3[C@@](O)(C(N)=O)[C@H](O)[C@]5(CC)C=CCN6CC[C@]43[C@@H]65)C2)C1` [SPE_K59753975], the activation at 10 µM worked out at 7.07%.

In the case of `c1cc(-c2cnn3cc(-c4ccc(N5CCNCC5)cc4)cnc23)c2cccnc2c1` [SPE_K59831625], the activation at 10 µM stood at 29.5%.

As for `CC(C)=CCC[C@](C)(O)[C@H]1CC[C@]2(C)[C@@H]1[C@H](O)C[C@@H]1[C@@]3(C)CC[C@H](O)C(C)(C)[C@@H]3CC[C@]12C` [SPE_K60005752], the activation at 10 µM is -8.61%.

For `CN(C)c1ccc(C(=C2C=CC(=[N+](C)C)C=C2)c2ccc(N(C)C)cc2)cc1` [SPE_K60025295], the activation at 10 µM was 5.79%.

On to `C=CCc1cc(OC)c(O)c(C(=O)NCCO)c1` [SPE_K60102752], for which the activation at 10 µM was -3.89%.

Consider `CC(C)C[C@@H](C=O)NC(=O)[C@H](CC(C)C)NC(=O)[C@H](CC(C)C)NC(=O)OCc1ccccc1` [SPE_K60230970] (Cbz-Leu-Leu-Leu-aldehyde), for which the activation at 10 µM is -0.437%.

Turning to `NCc1cc(O)no1` [SPE_K60441002], the activation at 10 µM is -7.28%.

Regarding `CCN(C(=O)c1c(O)c2c(Cl)cccc2n(C)c1=O)c1ccccc1` [SPE_K60918217], the activation at 10 µM was -1.53%.

On to `N#Cc1cc(F)cc(-c2nc(-c3ccc(F)cn3)no2)c1` [SPE_K61043483], for which the activation at 10 µM was determined as 1.97%.

On to `COc1cc(-n2c(S)nc3ccccc3c2=O)c(Cl)cc1Cl` [SPE_K61128465], for which the activation at 10 µM is 22%.

As for `COc1cccc(NC(=O)/C=C/c2ccc(Cl)cc2)c1` [SPE_K61536336], the activation at 10 µM was -7.48%.

Turning to `Cn1cccc1/C=C1\C(=O)NC(=O)c2ccccc21` [SPE_K61665160], the activation at 10 µM was -5.42%.

With `N=C(N)NC(=O)c1cnccn1` [SPE_K61693562], the activation at 10 µM was -1.49%.

Consider `CC(C)OC(=O)OCOP(=O)(CO[C@H](C)Cn1cnc2c(N)ncnc21)OCOC(=O)OC(C)C` [SPE_K61868322], for which the activation at 10 µM is -3.62%.

With `CNC(=O)c1cc2c(cn1)[nH]c1ccccc12` [SPE_K61951118], the activation at 10 µM is -1.18%.

For the molecule `CC(C)(C)C(=O)NCCCC(=O)O` [SPE_K62264492], the activation at 10 µM is 5.19%.

Take `NC[C@H](CC(=O)O)c1ccc(Cl)cc1` [SPE_K62353271]: the activation at 10 µM was -10.2%.

On to `CN1CCN(c2c(F)cc3c(=O)c(C(=O)O)cn4c3c2SCC4)CC1` [SPE_K62374253], for which the activation at 10 µM is -11.9%.

Take `COc1[nH]c2ccc(F)cc2c1C(=O)OCC1CCN(CCNS(C)(=O)=O)CC1` [SPE_K62594868]: the activation at 10 µM is -2.59%.

As for `COc1cccc(-c2cc(=O)c3ccccc3o2)c1N` [SPE_K62810658], the activation at 10 µM is 2.96%.

As to `Cc1cccc(C)c1NC(=O)CN1CCN(CCCC(c2ccc(F)cc2)c2ccc(F)cc2)CC1` [SPE_K62996583], the activation at 10 µM was 90.9%.

Regarding `CCN(CCO)CCCOc1ccc2c(Nc3cc(CC(=O)Nc4cccc(F)c4)n[nH]3)ncnc2c1` [SPE_K63923597], the activation at 10 µM is -6.57%.

For the molecule `CC#CC(=O)N1CCC[C@H]1c1nc(-c2ccc(C(=O)Nc3ccccn3)cc2)c2c(N)nccn12` [SPE_K64034691], the activation at 10 µM was -12.3%.

Turning to `COc1cc2ncnc(Nc3ccc(F)c(Cl)c3)c2cc1OCCCN1CCOCC1` [SPE_K64052750], the activation at 10 µM is -10.1%.

Take `CNCCc1c[nH]cn1` [SPE_K64422603]: the activation at 10 µM was -17.3%.

For `Cc1nc(N)sc1-c1ccnc(Nc2ccc(N3CCOCC3)cc2)n1` [SPE_K64866502], the activation at 10 µM is -7.46%.

On to `Nc1ncnc2c1ncn2[C@@H]1O[C@H](CO)C[C@H]1O` [SPE_K65428967], for which the activation at 10 µM is -10.4%.

As to `COc1ccc([C@H]2CNC(=O)C2)cc1OC1CCCC1` [SPE_K65856711], the activation at 10 µM was -5.06%.

Take `OC[C@H]1O[C@@H](OCCc2ccc(O)cc2)[C@H](O)[C@@H](O)[C@@H]1O` [SPE_K66030860]: the activation at 10 µM is -4.58%.

As to `COc1cc(/C=C/C(=O)O)ccc1O` [SPE_K66295376], the activation at 10 µM was -10.8%.

As to `CN(C)C/C=C/C(=O)Nc1ccc(C(=O)Nc2cccc(Nc3ncc(Cl)c(-c4c[nH]c5ccccc45)n3)c2)cc1` [SPE_K66401437], the activation at 10 µM stood at 6.67%.

Consider `O=C(O)C1=CCNCC1` [SPE_K66480997], for which the activation at 10 µM was -5.88%.

Turning to `O=C(Nc1cccc(Cl)c1)c1ccccn1` [SPE_K66527818], the activation at 10 µM is -8.01%.

As for `CC(C)(C)c1ccc(NC(=O)N2CCN(c3ncccc3Cl)CC2)cc1` [SPE_K66541497], the activation at 10 µM is -7.73%.

Take `O=C1C=CC[C@@H]2[C@H]3CCCN4CCC[C@@H](CN12)[C@@H]34` [SPE_K66845263]: the activation at 10 µM was -5.47%.

For the molecule `CCCN(CCC)C(=O)Cc1c(-c2ccc(Cl)cc2)nc2ccc(Cl)cn12` [SPE_K66896751], the activation at 10 µM is -0.969%.

As to `CCCCCCCC/C=C\CCCCCCCC(=O)NCCO` [SPE_K66956375], the activation at 10 µM is -6.58%.

For `CN(C)CCc1c[nH]c2ccc(CS(=O)(=O)N3CCCC3)cc12` [SPE_K67601717], the activation at 10 µM was -4.95%.

Take `O=C(NCCN1CCN(c2ncccn2)CC1)C12CC3CC(CC(C3)C1)C2` [SPE_K67789209]: the activation at 10 µM is -11.4%.

As for `COc1ccc(CNC(=O)Nc2ncc([N+](=O)[O-])s2)cc1` [SPE_K67860401], the activation at 10 µM is -8.12%.

As to `Cc1[nH]c2ccc(F)cc2c1-c1nc2c3cccnc3c3ncccc3c2[nH]1` [SPE_K68003372], the activation at 10 µM is -0.56%.

For `CN(C)c1nc(N)c(C(=O)Nc2cccnc2)nc1Cl` [SPE_K68633617], the activation at 10 µM was -11.7%.

Consider `O=C(COc1ccc(C(=O)c2ccccc2)cc1)NC1CCN(Cc2ccccc2)CC1` [SPE_K68810443], for which the activation at 10 µM was -3.96%.

`O=C(Nc1cccnc1)N1CCC(Cc2cccc(Oc3ccc(C(F)(F)F)cn3)c2)CC1` [SPE_K68997413]: the activation at 10 µM was 1.53%.

In the case of `COc1ccccc1N1CCN(CCCCN2C(=O)c3ccccc3C2=O)CC1` [SPE_K69195780], the activation at 10 µM was -5.05%.

For the molecule `COc1cc(N)c(Cl)cc1C(=O)OCCN1CCCCC1` [SPE_K69343602], the activation at 10 µM was -4.29%.

As to `C[C@]12C=CC(=O)C=C1CC[C@@H]1[C@@H]2CC[C@]2(C)OC(=O)CC[C@@H]12` [SPE_K69636617], the activation at 10 µM is -2.05%.

As to `CC(C)C(=O)OC[C@H]1O[C@@H](n2ccc(N)nc2=O)[C@](C)(F)[C@@H]1OC(=O)C(C)C` [SPE_K69726595], the activation at 10 µM is -9.49%.

For the molecule `COc1ccccc1N1CCN(CCN(C(=O)C2CCCCC2)c2ccccn2)CC1` [SPE_K69812556], the activation at 10 µM was -15.3%.

Turning to `Clc1ccc(Nc2nnc(Cc3ccncc3)c3ccccc23)cc1` [SPE_K70163715], the activation at 10 µM was -2.12%.

As for `O=C(NC[C@H](O)CN1CCc2ccccc2C1)c1cc(NC2COC2)ncn1` [SPE_K70446295], the activation at 10 µM is -3.31%.

As to `C[C@@H]1CN(CCCn2c3ccccc3c3ccccc32)C[C@H](C)N1` [SPE_K70490179], the activation at 10 µM came to 109%.

In the case of `CNC(=O)c1c(C)oc2cc(Oc3ncnc4cc(OC)c(OC)cc34)ccc12` [SPE_K70504253], the activation at 10 µM amounted to 8.27%.

On to `CCCCCCCCCCC(=O)O[C@H]1CC[C@H]2[C@@H]3CCC4=CC(=O)CC[C@]4(C)[C@H]3CC[C@]12C` [SPE_K70650177], for which the activation at 10 µM is -4.09%.

For `O=c1n(CCCN2CCN(c3cccc(Cl)c3)CC2)nc2ccccn12` [SPE_K70778732], the activation at 10 µM is -8.41%.

As for `Nc1c(S(=O)(=O)O)cc(Nc2cccc3ccccc23)c2c1C(=O)c1ccccc1C2=O` [SPE_K71266197], the activation at 10 µM is -13.9%.

`Cc1c(C(=O)NCc2cccnc2)nn(-c2ccc(Cl)cc2Cl)c1-c1ccc(Cl)cc1` [SPE_K71315565]: the activation at 10 µM was 4.2%.

For `C=CCC1(CC(C)C)C(=O)NC(=O)NC1=O` [SPE_K71350836], the activation at 10 µM was -15.8%.

In the case of `Cc1ccsc1/C=C/C1=NCCCN1C` [SPE_K71454870], the activation at 10 µM was -13.8%.
